Tests used:
[1] = biological target: T1, Cholecystokinin receptor type A (Homo sapiens, UniProt P32238); assay: Displacement of [3H]L-364718 from human recombinant CCK1 receptor expressed in PC3 cells; type: cell-based, PC-3
T1 sequence (P32238 whole entry): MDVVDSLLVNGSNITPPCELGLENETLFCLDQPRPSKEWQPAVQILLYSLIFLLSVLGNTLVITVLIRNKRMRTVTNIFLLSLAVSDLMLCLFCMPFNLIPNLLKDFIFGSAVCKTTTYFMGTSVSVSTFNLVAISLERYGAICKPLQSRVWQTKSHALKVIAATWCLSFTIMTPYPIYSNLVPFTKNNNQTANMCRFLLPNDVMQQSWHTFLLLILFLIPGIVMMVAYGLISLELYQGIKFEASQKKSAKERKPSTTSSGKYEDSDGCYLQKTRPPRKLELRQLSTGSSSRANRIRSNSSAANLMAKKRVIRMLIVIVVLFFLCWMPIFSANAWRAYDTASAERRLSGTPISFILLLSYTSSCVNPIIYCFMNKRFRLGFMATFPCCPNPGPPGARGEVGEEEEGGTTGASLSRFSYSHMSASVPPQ

[2] = biological target: T2, Gastrin/cholecystokinin type B receptor (Homo sapiens, UniProt P32239); assay: Displacement of […] from human recombinant CCK2 receptor expressed in NIH3T3 cells; type: cell-based
T2 sequence (P32239 whole entry): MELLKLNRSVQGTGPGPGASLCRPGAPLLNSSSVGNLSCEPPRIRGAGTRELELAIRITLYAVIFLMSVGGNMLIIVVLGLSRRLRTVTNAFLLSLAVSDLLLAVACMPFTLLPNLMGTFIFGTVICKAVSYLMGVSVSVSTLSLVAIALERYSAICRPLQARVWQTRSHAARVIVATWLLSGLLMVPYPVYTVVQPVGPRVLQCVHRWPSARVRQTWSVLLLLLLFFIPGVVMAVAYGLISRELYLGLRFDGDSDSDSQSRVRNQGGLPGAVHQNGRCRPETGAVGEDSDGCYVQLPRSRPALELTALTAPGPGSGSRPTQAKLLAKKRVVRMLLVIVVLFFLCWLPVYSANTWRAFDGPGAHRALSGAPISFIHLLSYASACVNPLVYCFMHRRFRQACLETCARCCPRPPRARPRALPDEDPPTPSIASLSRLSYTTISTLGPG

[3] = biological target: T3, Gastrin/cholecystokinin type B receptor (Canis lupus familiaris, UniProt P30552); assay: Displacement of [125I]BH-[…] from CCK2 receptor in canine gastric mucosa; type: tissue-based
T3 sequence (P30552 whole entry): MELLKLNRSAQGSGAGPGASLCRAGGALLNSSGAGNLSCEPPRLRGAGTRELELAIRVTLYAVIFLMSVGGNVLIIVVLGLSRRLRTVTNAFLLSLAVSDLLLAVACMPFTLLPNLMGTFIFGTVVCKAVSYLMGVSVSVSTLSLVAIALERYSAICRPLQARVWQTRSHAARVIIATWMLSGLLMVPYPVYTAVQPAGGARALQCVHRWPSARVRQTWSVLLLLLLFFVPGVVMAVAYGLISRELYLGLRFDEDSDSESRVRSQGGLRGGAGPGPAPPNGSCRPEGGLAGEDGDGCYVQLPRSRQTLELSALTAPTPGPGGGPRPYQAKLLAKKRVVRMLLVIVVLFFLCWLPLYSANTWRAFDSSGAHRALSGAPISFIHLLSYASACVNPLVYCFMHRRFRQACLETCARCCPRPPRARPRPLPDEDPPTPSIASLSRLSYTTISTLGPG

[4] = biological target: T4, Gastrin/cholecystokinin type B receptor (Rattus norvegicus, UniProt P30553); assay: Antagonist activity at CCK2 receptor in perfused rat stomach assessed as inhibition of pentagastrin-stimulated gastric acid secretion; type: functional, tissue-based; settings: read-out: pA2 (converted)
T4 sequence (P30553 whole entry): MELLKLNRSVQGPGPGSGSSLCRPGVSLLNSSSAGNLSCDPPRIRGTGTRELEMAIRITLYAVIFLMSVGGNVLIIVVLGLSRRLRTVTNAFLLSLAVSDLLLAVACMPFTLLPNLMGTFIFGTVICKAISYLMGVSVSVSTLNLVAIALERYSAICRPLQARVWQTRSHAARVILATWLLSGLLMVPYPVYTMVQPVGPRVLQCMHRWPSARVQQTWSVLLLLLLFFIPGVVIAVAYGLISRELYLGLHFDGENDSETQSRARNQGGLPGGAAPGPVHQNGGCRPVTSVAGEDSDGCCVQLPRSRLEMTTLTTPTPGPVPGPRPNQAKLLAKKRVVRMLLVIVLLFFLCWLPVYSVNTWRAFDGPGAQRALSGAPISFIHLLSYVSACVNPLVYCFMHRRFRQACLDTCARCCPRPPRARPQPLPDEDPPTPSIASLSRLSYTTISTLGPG

[5] = biological target: T5, Gastrin/cholecystokinin type B receptor (Canis lupus familiaris) (UniProt P30552); assay: Inhibition of pentagastrin-stimulated gastric acid secretion in iv dosed conscious gastric fistula dog; type: functional, organism-based; settings: Stomach
T5 sequence (whole entry): T3 sequence (P30552 whole entry)

[6] = biological target: T2, Gastrin/cholecystokinin type B receptor; assay: Displacement of [125I]BH-CCK-8S from human recombinant CCK2 receptor expressed in NIH3T3 cells
[7] = biological target: T5, Gastrin/cholecystokinin type B receptor (Canis lupus familiaris); assay: Inhibition of pentagastrin-stimulated gastric acid secretion in intragastrically dosed conscious gastric fistula dog; type: functional, organism-based; settings: Stomach
[8] = biological target: T5, Gastrin/cholecystokinin type B receptor (Canis lupus familiaris); assay: Inhibition of pentagastrin-stimulated gastric acid secretion in intraduodenal bolus dosed conscious dual gastric fistula dog; type: functional, organism-based; settings: Stomach
[9] = biological target: T1, Cholecystokinin receptor type A; assay: Displacement of [3H]L-364718 from human recombinant CCK1 receptor expressed in CHOK1 cells; type: cell-based, CHO-K1
[10] = Bioavailability in po dosed dog; type: ADME, organism-based, Canis lupus familiaris; settings: in vivo
[11] = Half life beta in po dosed dog; type: ADME, organism-based, Canis lupus familiaris; settings: in vivo, read-out: beta t1/2 (converted)
[12] = Cmax in po dosed dog; type: ADME, organism-based, Canis lupus familiaris; design: route oral; settings: in vivo
[13] = Volume of distribution at steady state in dog at 2.5 mg/kg, iv; type: ADME, organism-based, Canis lupus familiaris; design: dose 2.5 mg/kg, route intravenous; settings: in vivo, read-out: Vdss
[14] = Plasma clearance in dog at 2.5 mg/kg, iv; type: ADME, organism-based, Canis lupus familiaris; design: dose 2.5 mg/kg, route intravenous

| Compound | Ki [1] | Ki [2] | Ki [3] | Kb [4] | Ki [6] | Ki [9] | other results |
| --- | --- | --- | --- | --- | --- | --- | --- |
| CC(C)(C)C(=O)CN1C(=O)N(CC(=O)Nc2cccc(CC(=O)O)c2)N=C(C2CCCCC2)c2ccccc21 | > 10000 nM | – | 5.25 nM | 9.77 nM | 2.14 nM | – | Activity [5]: Dose-dependent effect |
| O=C(CN1N=C(C2CCCCC2)c2ccccc2N(CC(=O)C2CCCC2)C1=O)Nc1cccc(-c2noc(=O)[nH]2)c1 | – | – | – | – | – | – | ID50 [7]: 0.016 mg/kg; Activity [8]: Dose-dependent effect; ID50 [5]: < 0.03 mg/kg |
| O=C(CN1N=C(C2CCCCC2)c2ccccc2N(CC(=O)C2CCCC2)C1=O)Nc1cccc(-c2nc(=O)o[nH]2)c1 | – | – | 4.47 nM | 1.82 nM | 0.107 nM | 468 nM | bioavailability [10]: 41%; half-life [11]: 4.1 h; Cmax [12]: 15 µM; Vd [13]: 0.13 L/kg; clearance [14]: 0.2 L/h/kg |

Continued, in another order:

| Ki [1] | Ki [2] | Ki [3] | Kb [4] | Ki [6] | Ki [9] | Compound | other results |
| --- | --- | --- | --- | --- | --- | --- | --- |
| 7080 nM | 89.1 nM | – | – | – | – | CC(C)CC1=NN(CC(=O)Nc2cccc(C(=O)O)c2)C(=O)N(CC(=O)C(C)(C)C)c2ccccc21 | – |
| – | – | 4.47 nM | – | 0.2 nM | 589 nM | CC(C)(C)C(=O)CN1C(=O)N(CC(=O)Nc2cccc(-c3nc(=O)o[nH]3)c2)N=C(C2CCCCC2)c2ccccc21 | Activity [7]: Dose-dependent effect |
| – | 1.2 nM | – | – | – | 3980 nM | CC1(C(=O)CN2C(=O)N(CC(=O)Nc3cccc(C(=O)O)c3)N=C(C3CCCCC3)c3ccccc32)CCCC1 | – |

Source: ChEMBL document CHEMBL1145380, “Optimization of 1,3,4-benzotriazepine-based CCK(2) antagonists to obtain potent, orally active inhibitors of gastrin-mediated gastric acid secretion” (J Med Chem, 2007)
